# Assay results as given in publication PMC3179953, “In Mycoplasma hominis the OppA-mediated cytoadhesion depends on its ATPase activity” (BMC Microbiology, 2011).
# Molecular target: T1, OppA^WT (OppA, P100), wild type purified from M. hominis (Metamycoplasma hominis, UniProt Q49551)
# T1 construct: native lipoprotein, solubilised with N-dodecylmaltoside from membranes and isolated with sepharose-coupled antibody DC10; phosphorylated
# Test: ammonium molybdate ATPase assay, inhibitor preincubated […] min
# Format: biochemical
# Settings: 200 μM inhibitor
# T1 sequence (Q49551 entry or part of it): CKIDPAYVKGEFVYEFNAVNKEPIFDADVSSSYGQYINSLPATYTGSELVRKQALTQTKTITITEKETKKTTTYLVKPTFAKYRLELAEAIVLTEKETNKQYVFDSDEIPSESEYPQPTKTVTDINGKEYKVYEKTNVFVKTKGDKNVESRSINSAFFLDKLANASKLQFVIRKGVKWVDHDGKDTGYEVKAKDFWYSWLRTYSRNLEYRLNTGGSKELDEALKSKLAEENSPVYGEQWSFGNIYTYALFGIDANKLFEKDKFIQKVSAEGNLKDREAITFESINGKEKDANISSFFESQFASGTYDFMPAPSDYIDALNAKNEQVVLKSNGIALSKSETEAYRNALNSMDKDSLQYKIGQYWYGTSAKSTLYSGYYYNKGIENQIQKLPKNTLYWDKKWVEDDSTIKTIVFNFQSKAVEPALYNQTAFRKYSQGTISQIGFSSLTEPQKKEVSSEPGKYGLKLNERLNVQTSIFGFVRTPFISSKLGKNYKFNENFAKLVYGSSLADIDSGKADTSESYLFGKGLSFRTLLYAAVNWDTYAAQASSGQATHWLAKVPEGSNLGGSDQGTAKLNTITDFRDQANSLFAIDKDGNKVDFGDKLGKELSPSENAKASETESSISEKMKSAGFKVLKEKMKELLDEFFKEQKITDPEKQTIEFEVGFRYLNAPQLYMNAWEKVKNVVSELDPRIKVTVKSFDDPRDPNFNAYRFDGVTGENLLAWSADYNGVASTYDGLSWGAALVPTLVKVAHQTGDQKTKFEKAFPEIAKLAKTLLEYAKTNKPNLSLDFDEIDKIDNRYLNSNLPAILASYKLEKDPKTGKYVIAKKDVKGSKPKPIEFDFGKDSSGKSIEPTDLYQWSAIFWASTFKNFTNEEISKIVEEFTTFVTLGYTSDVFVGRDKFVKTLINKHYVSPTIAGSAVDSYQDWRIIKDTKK
structure (smiles),measurement,value
"O=S(=O)(O)c1cc(N=C=S)ccc1/C=C/c1ccc(N=C=S)cc1S(=O)(=O)O [DIDS, 4,4'-diisothiocyano-2,2'-stilbene-disulfonic acid]",relative ATPase activity at 200 μM,OppA was neither able to hydrolyze ATP (Figure 3A)
